Measured values from publication PMC7494392 (Journal of Pain Research, 2020).

Target: TRPV1 (Rattus norvegicus, UniProt O35433)
Assay: Fura-2 calcium imaging in rat DRG neurons
Format: cell-based

Chain of TRPV1 (O35433 whole entry): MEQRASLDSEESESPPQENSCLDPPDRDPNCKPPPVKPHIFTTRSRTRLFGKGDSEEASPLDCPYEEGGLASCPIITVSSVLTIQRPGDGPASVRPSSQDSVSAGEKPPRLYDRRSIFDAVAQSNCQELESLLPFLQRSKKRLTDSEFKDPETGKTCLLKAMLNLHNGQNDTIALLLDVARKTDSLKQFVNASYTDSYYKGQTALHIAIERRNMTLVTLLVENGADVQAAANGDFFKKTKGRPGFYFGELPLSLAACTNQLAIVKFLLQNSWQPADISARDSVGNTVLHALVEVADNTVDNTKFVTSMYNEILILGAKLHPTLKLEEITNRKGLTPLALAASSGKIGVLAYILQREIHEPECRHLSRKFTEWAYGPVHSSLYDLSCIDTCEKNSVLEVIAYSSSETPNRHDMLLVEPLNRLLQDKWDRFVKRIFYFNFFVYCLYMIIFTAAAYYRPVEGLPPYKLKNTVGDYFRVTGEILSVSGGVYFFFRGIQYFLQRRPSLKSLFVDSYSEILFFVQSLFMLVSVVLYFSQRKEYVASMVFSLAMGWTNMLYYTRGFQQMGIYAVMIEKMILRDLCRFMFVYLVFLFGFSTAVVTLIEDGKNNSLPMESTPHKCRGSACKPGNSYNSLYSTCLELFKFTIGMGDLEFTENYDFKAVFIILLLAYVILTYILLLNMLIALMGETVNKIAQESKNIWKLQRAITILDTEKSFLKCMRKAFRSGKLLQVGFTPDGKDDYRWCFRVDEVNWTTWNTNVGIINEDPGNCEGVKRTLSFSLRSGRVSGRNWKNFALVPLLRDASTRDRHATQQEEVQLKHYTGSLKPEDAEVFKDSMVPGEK

Question: With `C=C(C)[C@@H]1CCC(C)=C[C@H]1c1c(O)cc(CCCCC)cc1O` [CBD, Cannabidiol] as the molecule, how does the EC50 read?
Answer: The EC50 was 1 to 10 µM.
